Tested on: SK-BR-3 cancer cells
Test: Inhibitory activity against proliferation of SK-BR-3 cancer cells (CellTiter-Glo)
Format: cell-based
Settings: Homo sapiens, SK-BR-3, 120 h, ErbB2-overexpressing SK-BR-3 cells, 120 hours after treatment
Procedure: To evaluate the inhibitory activity of a compound according to the present invention against the proliferation of ErbB2-overexpressing cancer cells, the following experiment were performed.
10% FBS-added McCOY'S 5A was used for SK-BR-3 cancer cells. 20% FBS-added RPMI-1640 was used for BT-474 cancer cells. Transduced Ba/F3 cells were cultured in a RPMI-1640 medium to which 1 μg/ml puromycin (Invitrogen) was added.
48 hours before compound treatment, each type of the SK-BR-3 and BT-474 cells were seeded at 5,000 cells/well in a white clear bottom 96 well plate (Corning). The compound was diluted in dimethyl sulfoxide (SK-BR-3: 3-fold dilution, a total of 12 concentrations, BT-474: […], a total of 12 concentrations) and injected at 1 μl to have the final concentration of 0.2 nM to 5 μM. As for measurement of live cells, 120 hours after treatment with the compound, a CellTiter-Glo luminescent cell-viability reagent (Promega) was used to store the cells at room temperature for 10 minutes, followed by measurement of luminescence using a reader (SynergyNeo, Biotek). Each test was repeated three times.
The result values were calculated as a cell growth rate (%) compared to the control group. A graph was plotted using the GraphPad Prism version 8.3.0 program, and GI50 values were calculated.

| SMILES | GI50 [nM] |
| --- | --- |
| C=CC(=O)Nc1cc(Nc2cc(N3OCC[C@@H]3c3cccc(Oc4cccc(C(F)(F)F)c4)c3)ncn2)c(OC)cc1N1CCC(N2CCN(C3CC3)CC2)CC1 [Example compound 94, (R)-N-(2-(4-(4-cyclopropylpiperazin-1-yl)piperidin-1-yl)-4-methoxy-5-((6-(3-(3-(3-(trifluoromethyl)phenoxy)phenyl)isoxazolidin-2-yl)pyrimidin-4-yl)amino)phenyl)acrylamide] | < 50 |
| C=CC(=O)Nc1cc(Nc2cc(N3OCC[C@@H]3c3cc(F)cc(-c4cccc(F)c4)c3)ncn2)c(OC)cc1N(C)CCN(C)C [Example 208, (R)-N-(5-((6-(3-(3′,5-difluoro-[1,1′-biphenyl]-3-yl)-isoxazolidin-2-yl)-pyrimidin-4-yl)-amino)-2-((2-(dimethylamino)-ethyl)(methyl)-amino)-4-methoxy-phenyl)acrylamide] | < 50 |
| C=CC(=O)Nc1cc(Nc2cc(N3OCC[C@@H]3c3cccc(C#Cc4cccc(O)c4)c3)ncn2)c(OC)cc1N(C)CCN(C)C [Example 312, (R)-N-(2-((2-(dimethylamino)-ethyl)(methyl)-amino)-5-((6-(3-(3-((3-hydroxy-phenyl)ethynyl)-phenyl)isoxazol-idin-2-yl)pyrim-idin-4-yl)amino)-4-methoxyphen-yl)acrylamide] | 50 to 500 |
| C=CC(=O)Nc1cc(Nc2cc(N3OCC[C@@H]3c3cccc(-c4ccccc4)c3)ncn2)c(OC)cc1N1CCN(C(C)=O)CC1 [Example 215, (R)-N-(5-((6-(3-([1,1′-biphenyl]-3-yl)isoxazolidin-2-yl)pyrimidin-4-yl)-amino)-2-(4-acetyl-piperazin-1-yl)-4-methoxyphenyl)-acrylamide] | < 50 |
| C=CC(=O)Nc1cc(Nc2cc(N3OCC[C@@H]3c3cccc(C(=O)NC(C)C)c3)ncn2)c(OC)cc1N1CCN(C)CC1 [Example 246, (R)-3-(2-(6-((5-acrylamido-2-methoxy-4-(4-methylpiperazin-1-yl)phenyl)-amino)pyrimidin-4-yl)isoxazolidin-3-yl)-N-isopropyl-benzamide] | < 50 |
| C=CC(=O)Nc1cc(Nc2cc(N3OCC[C@@H]3c3cc(F)cc(Oc4cccc(F)c4)c3)ncn2)c(OC)cc1N1CCN(CC)CC1 [Example 220, (R)-N-(2-(4-ethyl-piperazin-1-yl)-5-((6-(3-(3-fluoro-5-(3-fluorophenoxy)-phenyl)isoxazol-idin-2-yl)pyrim-idin-4-yl)amino)-4-methoxyphen-yl)acrylamide] | < 50 |
| C=CC(=O)Nc1cc(Nc2cc(N3OCC[C@@H]3c3cccc(-c4cc(F)cc(F)c4)c3)ncn2)c(OC)cc1N1CCO[C@H](C)C1 [Example 270, N-(5-((6-((R)-3-(3′,5′-difluoro-[1,1′-biphenyl]-3-yl)-isoxazolidin-2-yl)-pyrimidin-4-yl)-amino)-4-methoxy-2-((R)-2-methyl-morpholino)phen-yl)acrylamide] | < 50 |
| C=CC(=O)Nc1cc(Nc2cc(N3OCC[C@@H]3c3cccc(-c4cc(F)cc(F)c4)c3)ncn2)c(OC)cc1N1CCC(N2CCN(C3CC3)CC2)CC1 [Example 269, (R)-N-(2-(4-(4-cyclopropylpiper-azin-1-yl)piper-idin-1-yl)-5-((6-(3-(3′,5′-difluoro-[1,1′-biphenyl]-3-yl)isoxazolidin-2-yl)pyrimidin-4-yl)-amino)-4-methoxy-phenyl)acrylamide] | < 50 |
| C=CC(=O)Nc1cc(Nc2cc(N3OCC[C@@H]3c3cccc(OCc4cccc(F)c4)c3)ncn2)c(OC)cc1N1CCN(C)CC1 [Example compound 83, (R)-N-(5-((6-(3-(3-((3-fluorobenzyl)oxy)phenyl)isoxazolidin-2-yl)pyrimidin-4-yl)amino)-4-methoxy-2-(4-methylpiperazin-1-yl)phenyl)acrylamide] | 50 to 500 |
| C=CC(=O)Nc1cc(Nc2cc(N3OCC[C@@H]3c3cc(F)cc(-c4ncnn4C)c3)ncn2)c(OC)cc1N(C)CCN(C)C [Example 240, (R)-N-(2-((2-(dimethylamino)-ethyl)(methyl)-amino)-5-((6-(3-(3-fluoro-5-(1-methyl-1H-1,2,4-triazol-5-yl)phen-yl)-isoxazolidin-2-yl)pyrimidin-4-yl)-amino)-4-methoxy-phen-yl)acrylamide] | < 50 |
| C=CC(=O)Nc1cc(Nc2cc(N3OCCC3c3cccc(-c4cccc(C#N)c4)c3)ncn2)c(OC)cc1N1CCC(N2CCN(C3CC3)CC2)CC1 (stereo not shown) [Example 250, N-(5-((6-(3-(3′-cyano-[1,1′-biphen-yl]-3-yl)isoxazol-idin-2-yl)pyrim-idin-4-yl)amino)-2-(4-(4-cycloprop-ylpiperazin-1-yl)-piperidin-1-yl)-4-methoxyphenyl)-acrylamide] | < 50 |
| C=CC(=O)Nc1cc(Nc2cc(N3OCC[C@@H]3c3cccc(Oc4cccc(C(F)(F)F)c4)c3)ncn2)c(OC)cc1N1CCN(C)CC1 [Example compound 93, (R)-N-(4-methoxy-2-(4-methylpiperazin-1-yl)-5-((6-(3-(3-(3-(trifluoromethyl)phenoxy)phenyl)isoxazolidin-2-yl)pyrimidin-4-yl)amino)phenyl)acrylamide] | < 50 |
| C=CC(=O)Nc1cc(Nc2cc(N3OCC[C@@H]3c3cccc(-c4ccc(O)nc4)c3)ncn2)c(OC)cc1N1CCN(C)CC1 [Example 299, (R)-N-(5-((6-(3-(3-(6-hydroxypyridin-3-yl)phenyl)isox-azolidin-2-yl)pyr-imidin-4-yl)amino)-4-methoxy-2-(4-methylpiperazin-1-yl)phenyl)acryl-amide] | 500 to 5000 |
| C=CC(=O)Nc1cc(Nc2cc(N3OCC[C@@H]3c3cccc(C(=O)NC(C)C)c3)ncn2)c(OC)cc1N(C)CCN(C)C [Example 247, (R)-3-(2-(6-((5-acrylamido-4-((2-(dimethylamino)-ethyl)(methyl)-amino)-2-methoxy-phenyl)amino)pyr-imidin-4-yl)isox-azolidin-3-yl)-N-isopropylbenzamide] | < 50 |
| C=CC(=O)Nc1cc(Nc2cc(N3OCC[C@@H]3c3cc(F)cc(-c4cccc5ncnn45)c3)ncn2)c(OC)cc1N(C)CCN(C)C [Example 210, (R)-N-(5-((6-(3-(3-([1,2,4]triazolo-[1,5-a]pyridin-5-yl)-5-fluorophen-yl)isoxazolidin-2-yl)pyrimidin-4-yl)-amino)-2-((2-(dimethylamino)-ethyl)(methyl)-amino)-4-methoxy-phenyl)acrylamide] | < 50 |
| C=CC(=O)Nc1cc(Nc2cc(N3OCC[C@@H]3c3cccc(Oc4cc(F)cc(F)c4)c3)ncn2)c(OC)cc1N(C)CCN(C)C [Example 226, (R)-N-(5-((6-(3-(3-(3,5-difluoro-phenoxy)phenyl)-isoxazolidin-2-yl)-pyrimidin-4-yl)-amino)-2-((2-(dimethylamino)-ethyl)(methyl)-amino)-4-methoxy-phenyl)acrylamide] | < 50 |
| C=CC(=O)Nc1cc(Nc2cc(N3OCC[C@@H]3c3cc(F)cc(Oc4cccc(F)c4)c3)ncn2)c(OC)cc1N1CCOCC1 [Example 222, (R)-N-(5-((6-(3-(3-fluoro-5-(3-fluorophenoxy)-phenyl)isoxazol-idin-2-yl)pyrim-idin-4-yl)amino)-4-methoxy-2-morpholinophen-yl)acrylamide] | < 50 |
| C=CC(=O)Nc1cc(Nc2cc(N3OCC[C@@H]3c3cc(F)cc(-c4ccco4)c3)ncn2)c(OC)cc1N1CCC(N2CCN(C3CC3)CC2)CC1 [Example compound 134, (R)-N-(2-(4-(4-cyclopropylpiperazin-1-yl)piperidin-1-yl)-5-((6-(3-(3-fluoro-5-(furan-2-yl)phenyl)isoxazolidin-2-yl)pyrimidin-4-yl)amino)-4-methoxyphenyl)acrylamide] | < 50 |
| C=CC(=O)Nc1cc(Nc2cc(N3OCCC3c3cccc(-c4ccc5ncnn5c4)c3)ncn2)c(OC)cc1N1CCN(C)CC1 (stereo not shown) [Example 197, N-(5-((6-(3-(3-([1,2,4]triazolo-[1,5-a]pyridin-6-yl)phenyl)isoxazol-idin-2-yl)pyrim-idin-4-yl)amino)-4-methoxy-2-(4-methylpiperazin-1-yl)phenyl)-acrylamide] | < 50 |
| C=CC(=O)Nc1cc(Nc2cc(N3OCC[C@@H]3c3cccc(-c4ccn5ncnc5c4)c3)ncn2)c(OC)cc1N1CCN(C)CC1 [Example 268, (R)-N-(5-((6-(3-(3-([1,2,4]triazolo-[1,5-a]pyridin-7-yl)phenyl)isoxazol-idin-2-yl)pyrim-idin-4-yl)amino)-4-methoxy-2-(4-methylpiperazin-1-yl)phenyl)-acrylamide] | < 50 |
| C=CC(=O)Nc1cc(Nc2cc(N3OCCC3c3cccc(-c4cccc(C(F)(F)F)c4)c3)ncn2)c(OC)cc1N(C)CCN(C)C (stereo not shown) [Example 236, N-(2-((2-(dimeth-ylamino)ethyl)-(methyl)amino)-4-methoxy-5-((6-(3-(3′-(trifluorometh-yl)-[1,1′-biphenyl]-3-yl)isoxazolidin-2-yl)pyrimidin-4-yl)amino)phenyl)-acrylamide] | < 50 |
| C=CC(=O)Nc1cc(Nc2cc(N3OCCC3c3cccc(-c4ccc5ncnn5c4)c3)ncn2)c(OC)cc1N(C)CCN(C)C (stereo not shown) [Example 198, N-(5-((6-(3-(3-([1,2,4]triazolo-[1,5-a]pyridin-6-yl)phenyl)isoxazol-idin-2-yl)pyrim-idin-4-yl)amino)-2-((2-(dimethyl-amino)ethyl)-(methyl)amino)-4-methoxyphen-yl)acrylamide] | < 50 |

Reference: patent publication US20240262815A1, “HETEROARYL DERIVATIVE, METHOD FOR PREPARING SAME, AND PHARMACEUTICAL COMPOSITION COMPRISING SAME AS ACTIVE INGREDIENT” (VORONOI INC., priority 2021, published 2024)
